In patent publication US20170050957A1, “4-AMINO-6-(HETEROCYCLIC)PICOLINATES AND 6-AMINO-2-(HETEROCYCLIC)PYRIMIDINE-4-CARBOXYLATES AND THEIR USE AS HERBICIDES” (Dow AgroSciences LLC, priority 2013, published 2017):
Like-named read-outs stand apart in the source and are kept apart here.

Legend:
[1] = tested on: Key Grass and Sedge Weeds as well as Grass Crops; assay: Post-emergent Test II herbicidal activity (Table 16); type: in vivo; conditions: post-emergence, 336 h, 14 days after application; for pest or weed control at 35 g/ha: 35 g ai/ha; for pest or weed control at 70 g/ha: 70 g ai/ha; for pest or weed control at 140 g/ha: 140 g ai/ha; for pest or weed control at 280 g/ha: 280 g ai/ha
How it was run: (§1)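 Visual injury rating (0 = none, 100% = complete kill) made 14 d after treatment, relative to untreated plants. Compounds in an acetone/DMSO/aqueous crop-oil/surfactant spray, at top rate and serial 1/2×-1/16× rates, were applied at 187 L/ha overhead to first-second true leaf plants raised 7-21 d in greenhouse.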

[2] = tested on: Key Broadleaf Weed and Crop Species; assay: Post-emergent Test II herbicidal activity (Table 15); type: in vivo; conditions: post-emergence, 336 h, 14 d; for pest or weed control at 35 g/ha: 35 g ai/ha; for pest or weed control at 70 g/ha: 70 g ai/ha; for pest or weed control at 140 g/ha: 140 g ai/ha; for pest or weed control at 280 g/ha: 280 g ai/ha
How it was run: as §1

[3] = Cyperus esculentus, yellow nutsedge (Cyperus esculentus), read-out: Visual Growth Reduction (%) 14 Days After Application CYPES
[4] = Echinochloa crus-galli, barnyardgrass (Echinochloa crus-galli), read-out: Visual Growth Reduction (%) 14 Days After Application ECHCG
[5] = Oryza sativa, rice (Oryza sativa), read-out: Visual Growth Reduction (%) 14 Days After Application ORYSA
[6] = Setaria faberi, giant foxtail (Setaria faberi), read-out: Visual Growth Reduction (%) 14 Days After Application SETFA
[7] = Triticum aestivum, wheat, spring (Triticum aestivum), read-out: Visual Growth Reduction (%) 14 Days After Application TRZAS
[8] = Zea mays, maize, corn (Zea mays), read-out: Visual Growth Reduction (%) 14 Days After Application ZEAMX
[9] = Abutilon theophrasti, velvetleaf (Abutilon theophrasti), read-out: Visual Growth Reduction (%) 14 Days After Application, ABUTH
[10] = Amaranthus retroflexus, redroot pigweed (Amaranthus retroflexus), read-out: Visual Growth Reduction (%) 14 Days After Application, AMARE
[11] = Brassica napus, oilseed rape, canola (Brassica napus), read-out: Visual Growth Reduction (%) 14 Days After Application, BRSNN
[12] = Chenopodium album, lambsquarters (Chenopodium album), read-out: Visual Growth Reduction (%) 14 Days After Application, CHEAL
[13] = Euphorbia heterophylla, wild poinsettia (Euphorbia heterophylla), read-out: Visual Growth Reduction (%) 14 Days After Application, EPHHL
[14] = Helianthus annuus, sunflower (Helianthus annuus), read-out: Visual Growth Reduction (%) 14 Days After Application, HELAN

For COC(=O)c1nc(-c2cccc3ccsc23)cc(N)c1Cl [Compound 3.27], which pest or weed control at 35 g/ha [1, 3] is on record?
The pest or weed control at 35 g/ha was 0 to 29%.

What about the pest or weed control at 70 g/ha [1, 3] of the same compound?
The pest or weed control at 70 g/ha was 0 to 29%.

And the pest or weed control at 140 g/ha [1, 3]?
The pest or weed control at 140 g/ha was 0 to 29%.

What about the pest or weed control at 280 g/ha [1, 3] of the same compound?
The pest or weed control at 280 g/ha was 0 to 29%.

What about the pest or weed control at 35 g/ha [1, 4] of the same compound?
Its pest or weed control at 35 g/ha is 0 to 29%.

And the pest or weed control at 70 g/ha [1, 4]?
Its pest or weed control at 70 g/ha is 0 to 29%.

And the pest or weed control at 140 g/ha [1, 4]?
The pest or weed control at 140 g/ha was 0 to 29%.

And the pest or weed control at 280 g/ha [1, 4]?
Its pest or weed control at 280 g/ha is 0 to 29%.

What about the pest or weed control at 35 g/ha [1, 5] of the same compound?
Its pest or weed control at 35 g/ha is 0 to 29%.

What about the pest or weed control at 70 g/ha [1, 5] of the same compound?
Its pest or weed control at 70 g/ha is 0 to 29%.

And the pest or weed control at 140 g/ha [1, 5]?
The pest or weed control at 140 g/ha was 0 to 29%.

What about the pest or weed control at 280 g/ha [1, 5] of the same compound?
Its pest or weed control at 280 g/ha is 0 to 29%.

And the pest or weed control at 35 g/ha [1, 6]?
The pest or weed control at 35 g/ha was 0 to 29%.

And the pest or weed control at 70 g/ha [1, 6]?
The pest or weed control at 70 g/ha was 0 to 29%.

And the pest or weed control at 140 g/ha [1, 6]?
The pest or weed control at 140 g/ha was 0 to 29%.

And the pest or weed control at 280 g/ha [1, 6]?
Its pest or weed control at 280 g/ha is 0 to 29%.

And the pest or weed control at 35 g/ha [1, 7]?
The pest or weed control at 35 g/ha was 0 to 29%.

What about the pest or weed control at 70 g/ha [1, 7] of the same compound?
The pest or weed control at 70 g/ha was 0 to 29%.

And the pest or weed control at 140 g/ha [1, 7]?
Its pest or weed control at 140 g/ha is 0 to 29%.

What about the pest or weed control at 280 g/ha [1, 7] of the same compound?
The pest or weed control at 280 g/ha was 0 to 29%.

What about the pest or weed control at 35 g/ha [1, 8] of the same compound?
Its pest or weed control at 35 g/ha is 0 to 29%.

And the pest or weed control at 70 g/ha [1, 8]?
The pest or weed control at 70 g/ha was 0 to 29%.

And the pest or weed control at 140 g/ha [1, 8]?
Its pest or weed control at 140 g/ha is 0 to 29%.

What about the pest or weed control at 280 g/ha [1, 8] of the same compound?
The pest or weed control at 280 g/ha was 0 to 29%.

And the pest or weed control at 35 g/ha [2, 9]?
The pest or weed control at 35 g/ha was 0 to 29%.

What about the pest or weed control at 70 g/ha [2, 9] of the same compound?
The pest or weed control at 70 g/ha was 0 to 29%.

What about the pest or weed control at 140 g/ha [2, 9] of the same compound?
Its pest or weed control at 140 g/ha is 45 to 59%.

And the pest or weed control at 280 g/ha [2, 9]?
Its pest or weed control at 280 g/ha is 75 to 84%.

What about the pest or weed control at 35 g/ha [2, 10] of the same compound?
The pest or weed control at 35 g/ha was 85 to 94%.

And the pest or weed control at 70 g/ha [2, 10]?
Its pest or weed control at 70 g/ha is 95 to 100%.

And the pest or weed control at 140 g/ha [2, 10]?
The pest or weed control at 140 g/ha was 95 to 100%.

And the pest or weed control at 280 g/ha [2, 10]?
Its pest or weed control at 280 g/ha is 95 to 100%.

What about the pest or weed control at 35 g/ha [2, 11] of the same compound?
Its pest or weed control at 35 g/ha is 45 to 59%.

And the pest or weed control at 70 g/ha [2, 11]?
The pest or weed control at 70 g/ha was 60 to 74%.

What about the pest or weed control at 140 g/ha [2, 11] of the same compound?
The pest or weed control at 140 g/ha was 60 to 74%.

What about the pest or weed control at 280 g/ha [2, 11] of the same compound?
Its pest or weed control at 280 g/ha is 85 to 94%.

What about the pest or weed control at 35 g/ha [2, 12] of the same compound?
The pest or weed control at 35 g/ha was 75 to 84%.

And the pest or weed control at 70 g/ha [2, 12]?
Its pest or weed control at 70 g/ha is 85 to 94%.

And the pest or weed control at 140 g/ha [2, 12]?
Its pest or weed control at 140 g/ha is 95 to 100%.

What about the pest or weed control at 280 g/ha [2, 12] of the same compound?
The pest or weed control at 280 g/ha was 95 to 100%.

What about the pest or weed control at 35 g/ha [2, 13] of the same compound?
The pest or weed control at 35 g/ha was 0 to 29%.

And the pest or weed control at 70 g/ha [2, 13]?
Its pest or weed control at 70 g/ha is 0 to 29%.

What about the pest or weed control at 140 g/ha [2, 13] of the same compound?
The pest or weed control at 140 g/ha was 0 to 29%.

What about the pest or weed control at 280 g/ha [2, 13] of the same compound?
Its pest or weed control at 280 g/ha is 0 to 29%.

And the pest or weed control at 35 g/ha [2, 14]?
The pest or weed control at 35 g/ha was 45 to 59%.

What about the pest or weed control at 70 g/ha [2, 14] of the same compound?
The pest or weed control at 70 g/ha was 60 to 74%.

And the pest or weed control at 140 g/ha [2, 14]?
Its pest or weed control at 140 g/ha is 75 to 84%.

And the pest or weed control at 280 g/ha [2, 14]?
Its pest or weed control at 280 g/ha is 85 to 94%.
